We go through one compound from patent US11395821B2, “Treatment of EGFR-driven cancer with fewer side effects” (G1 Therapeutics, Inc., priority 2017, dated 2022).

“Also recorded” adds a separate entry of the source.

The subject of data set [1] is H1975 (EGFR^L858R/T790M NSCLC Model). The experiment in a line: Example 3: Compound IV added to afatinib after resistance in H1975 tumor bearing mice. Format: in vivo. Here is the method: EGFRL858R/T790M NSCLC model (H1975) tumor bearing mice were treated with daily oral doses of vehicle or afatinib (20 mg/kg). Once tumors became resistant to afatinib (˜D18), Compound IV (100 mg/kg) was added to the treatment regimen. Tumors were measured […]. Data is plotted to compare tumor growth in each cohort during the treatment. The x-axis is days of treatment measured in time and the y-axis is tumor volume measured in mm^3.
Compound IV in combination with the EGFR-TKI afatinib was tested in an EGFR^L858R/T790M NSCLC model to determine the ability of the combination to reverse afatinib resistance. H1975 (EGFR^L858R/T790M NSCLC Model) tumor bearing mice were treated daily with 20 mg/kg of afatinib. Once tumors became resistant to afatinib (about D18), Compound IV (100 mg/kg) was added to the treatment regimen. Tumors were measured twice a week for 40 days. Data is plotted to compare tumor growth in each cohort during treatment.

Data set [2] has as its system EGFR^ex20ins PDX NSCLC tumor fragments (LU0387, CrownBio). The experiment in a line: Example 5: Compound IV +/- osimertinib in EGFR ex20ins PDX model. Format: in vivo, BALB/c nude mice. The settings on record: once daily oral gavage. From the text: The x-axis is days from initiation measured in time and the y-axis is mean tumor volume measured in mm^3.
Tumors continued to be measured until they reached tumor burden (>3000 mm3).

A short description of data set [3]: Study G1T38-01: safety and tolerability in healthy subjects. Format: in vivo, Humans. From the text: Effects on hematologic parameters were not observed due to the limited duration of dosing.

Regarding `CC(C)N1CCN(c2ccc(Nc3ncc4cc5n(c4n3)C3(CCCCC3)CNC5=O)nc2)CC1` [Compound IV], in data set [1] (afatinib 20 mg/kg daily, Compound IV 100 mg/kg added at about D18, 40 days), the “acquired resistance to afatinib (tumor volume)” value is recorded as “reverses acquired resistance to afatinib”. Besides, in data set [1] (as worded in Example 3), the “decrease of tumor volume, combination vs Compound IV alone and afatinib alone” value was “more effective at decreasing tumor volume”. The “afatinib efficacy and time to resistance (tumor volume)” value in data set [1] (as worded in Example 3: Compound IV 50 or 100 mg/kg in combination with afatinib) was “increased the afatinib efficacy and extended the time to resistance”. Also, the “tumor growth vs vehicle, combination” value in data set [2] (Compound IV 100 mg/kg + osimertinib 10 mg/kg) is “significant tumor growth delay; also recorded: delays tumor growth”. For the same compound, in data set [2] (17 days, Compound IV 100 mg/kg or osimertinib 10 mg/kg alone), the “tumor growth vs vehicle, single agent” value is on record as “did not cause an effect”. In data set [3] (dosing under fed conditions), the “effect of fed conditions on gastrointestinal tolerability” value is reported as “appeared to improve gastrointestinal tolerability”. The “effects on hematologic parameters” value in data set [3] (limited duration of dosing) is “not observed”. Also, in data set [3] (single or twice daily oral doses, 3 to 600 mg/day, healthy male and female subjects), the tolerability result is given as “well to moderately tolerated”. For the same compound, the “most common moderate intensity TEAEs” value in data set [3] (subjects with moderate tolerability) was “gastrointestinal AEs were the most common moderate intensity treatment-emergent AEs”.
